pEC50: −log10 of the molar value.
What was measured:
GnRH receptor [1] = target: T1, GnRH receptor (Homo sapiens, UniProt P30968); assay: Functional reporter gene assay (luciferase) in LTK cells carrying GnRH receptors, triptorelin stimulation; type: cell-based; set-up: expressed in transfected cells; host or cells: LTK cells (ATCC No. CCL-1.3), stably transfected, with CRE / CMV minimal promoter luciferase reporter; conditions: inhibition of triptorelin/Rolipram-stimulated luciferase reporter
T1 sequence (P30968 1-328): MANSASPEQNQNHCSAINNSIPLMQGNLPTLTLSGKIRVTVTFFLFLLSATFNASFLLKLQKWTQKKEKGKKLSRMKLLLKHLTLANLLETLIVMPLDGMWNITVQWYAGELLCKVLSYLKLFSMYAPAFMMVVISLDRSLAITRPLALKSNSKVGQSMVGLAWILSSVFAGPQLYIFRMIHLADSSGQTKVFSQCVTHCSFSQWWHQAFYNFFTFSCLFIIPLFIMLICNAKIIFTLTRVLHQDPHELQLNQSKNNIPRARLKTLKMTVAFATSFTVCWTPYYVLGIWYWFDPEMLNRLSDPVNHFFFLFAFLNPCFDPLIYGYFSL
Protocol: Functional Reporter Gene Assay
For performing functional tests, stable, transfixed LTK cells carrying GnRH receptors (ATCC No. CCL-1.3) with a heterologous expression of cAMP responsible elements as well as a CMV minimal promoter-driven luciferase reporter gene are used.
(§1) The cells are cultivated in DMEM medium (Invitrogen Life Technologies, Germany) with penicillin (100 I.U./ml), streptomycin (0.1 mg/ml) and glutamine (0.01 mol/l) and 10% fetal calf serum (FCS; Invitrogen Life Technologies, Germany) on plastic tissue culture plates (Nunc, Germany, 245×245×20 mm).
80% confluent cell culture plates are washed twice with 50 ml of phosphate-buffered salt solution (PBS) and subsequently dissolved with trypsin EDTA solution (Invitrogen Life Technologies, Germany). The cells are pelletized by centrifuging at 200×g for 5 minutes in a laboratory centrifuge (Kendro, Germany). The cell pellet is resuspended in 3 ml of assay medium (Invitrogen Life Technologies, Germany) with penicillin (100 I.U./ml), streptomycin (0.1 mg/ml) and glutamine (0.01 mol/l) and 10% fetal calf serum (FCS; Invitrogen Life Technologies, Germany), and the cell count is determined by means of trypan blue staining in a Neubauer counting chamber. The cell suspension is set with assay medium to a concentration of 1×10^4 Z/100 μl. The cells are suspended on white 96-well microtiter plates (Costar, Germany) and incubated for 18 hours in an incubator.
To perform tests, test substances are diluted as 10 mmol DMSO solutions in assay medium to 6× the final concentration used. 25 μl of the test substance is added to 100 μl cells and incubated for 60 minutes at 37° C., 5% CO2. Then, the addition of triptorelin (D-Trp6-GnRH)/Rolipram solution (6 mmol/6 mmol) and a renewed incubation are carried out for 6 hours at 37° C., 5% CO2.
After incubation, the addition of 50 μl of lysis/detection buffer (LucLite, PE Life Science) and the measurement in a Lumistar luminometer (BMG Labtechnologies GmBH, Germany) are carried out.
The evaluation of the samples is carried out after calculating the inhibition in comparison to untreated stimulated cells, after removal of non-stimulated controls, by means of GraphPad Prism (GraphPad Software, Inc., USA) or alternately by means of OMMM (Accelrys, Germany) Software.

GnRH receptor [2] = target: T1, GnRH receptor; assay: Receptor binding assay with 125I-triptorelin on transfected LTK cells; conditions: competition with 125I-triptorelin, whole LTK cells, 60 minutes at 37° C.
Protocol: ^125I-Triptorelin [^125I-(D)-Trp6-GnRH] is ordered from the Biotrend Company (Cologne, Germany). The specific activity in each case is 2.13 Ci/mmol. All other chemicals are ordered from commercial sources at the highest available purity.
as §1, with “Transfixed LTK′” for “The”, “cells (ATCC No. CCL-11.3)” for “cells”, “nun).” for “mm).”
80% confluent cell culture plates are washed twice with 50 ml of phosphate-buffered salt solution (PBS) and dissolved below with 0.01 M EDTA solution. The cells are pelletized by centrifuging at 200×g for 5 minutes in a laboratory centrifuge (Kendro, Germany). The cell pellet is resuspended in 3 ml of binding medium (DMEM; 10 mmol of Hepes; 0.5% BSA; 0.1% NaN3; 1 g/l of bacitracin (freshly added, stock 100×); 0.1 g/l of SBTI (freshly added, stock 1000×), and the cell count is determined by means of trypan blue staining in a Neubauer counting chamber. The cell suspension is set with binding medium to a concentration of 5×10^5 Z/0.05 ml.
Binding tests for competition curves are performed as duplicates. The test substances are used as 10 mmol DMSO solutions. They are diluted with binding medium to 4× the final concentration used. 25 μl of the substance dilution is mixed with 25 μl of tracer solution (^125I-triptorelin). The concentration of tracer is set to about 50,000 cpm (measured in Cobra II, γ-counter, PE Liefe Science, Germany) in the final reaction volume of 100 μl.
200 μl of a silicone/paraffin oil mixture (84%:16%) is introduced into 650 μl pointed-bottom tubes (Roth, Germany). 50 μl of the cell suspension is pipetted thereto and subsequently 50 μl of the test substance/tracer mixture. The tubes are sealed and incubated for 60 minutes at 37° C. in an incubator that rotates via the top. After incubation, the samples are centrifuged in a centrifuge (Kendro, Germany) at 900 rpm and subsequently flash-frozen in liquid N2. The tip with the cell pellet is cut off and inserted into the prepared counting tube (Roth, Germany). The remainder of the pointed-bottom tube with the remaining supernatant is also inserted into a counting tube. The measurement is made in a γ-counter for 1 minute/sample.
The evaluation of the samples is carried out after calculating the specific bond in comparison to untreated cells, after the unspecific bond (excess unlabeled ligand, 1 mmol) is removed by means of GraphPad Prism (GraphPad Software Inc., USA).

Row | pEC50 (GnRH receptor [1]) | pEC50 (GnRH receptor [2]) | Compound
1 | 6.12 | 6.48 | CC[C@H](C)[C@H](NC(=O)OCc1ccccc1)C(=O)N[C@]1(C(=O)N[C@H](C(N)=O)C(C)C)CCc2[nH]c3c(F)cc(F)cc3c2C1 [Compound 293, Phenylmethyl [(1S,2S)-1-[[[(3R)-3-[[[(1S)-1-(aminocarbonyl)-2-methylpropyl]amino]carbonyl]-6,8-difluoro-2,3,4,9-tetrahydro-1H-carbazol-3-yl]amino]car-bonyl]-2-methylbutyl]carbamate]
2 | 7.05 | 7.44 | CC[C@H](C)[C@H](NC(=O)[C@@]1(NC(=O)[C@@H](NC(=O)OCc2ccccc2)[C@@H](C)CC)CCc2[nH]c3c(OC)cccc3c2C1)C(N)=O [Compound 294, Phenylmethyl [(1S,2S)-1-[[[(3R)-3-[[[(1S,2S)-1-(aminocarbonyl)-2-methylbutyl]amino]carbonyl]-8-methoxy-2,3,4,9-tetrahydro-1H-carbazol-3-yl]amino]car-bonyl]-2-methylbutyl]carbamate]
3 | 8.15 | 7.74 | CC[C@H](C)[C@H](NC(=O)[C@@]1(NC(=O)[C@@H](NC(=O)OCc2ccccc2)[C@@H](C)CC)CCc2[nH]c3c(Cl)cc(Cl)cc3c2C1)C(N)=O [Compound 295, Phenylmethyl [(1S,2S)-1-[[[(3R)-3-[[[(1S,2S)-1-(aminocarbonyl)-2-methylbutyl]amino]carbonyl]-6,8-dichloro-2,3,4,9-tetrahydro-1H-carbazol-3-yl]amino]car-bonyl]-2-methylbutyl]carbamate]
4 | 7.85 | 7.66 | CC[C@H](C)[C@H](NC(=O)OCc1ccccc1)C(=O)N[C@]1(C(=O)N[C@@H](CC(C)C)C(N)=O)CCc2[nH]c3c(Cl)cc(Cl)cc3c2C1 [Compound 296, Phenylmethyl [(1S,2S)-1-[[[(3R)-3-[[[(1S)-1-(aminocarbonyl)-3-methylbutyl]amino]carbonyl]-6,8-dichloro-2,3,4,9-tetrahydro-1H-carbazol-3-yl]amino]car-bonyl]-2-methylbutyl]carbamate]
5 | 6.55 | 6.32 | CC[C@H](C)[C@H](NC(=O)OCc1ccccc1)C(=O)N[C@]1(C(=O)N[C@@H](CC2CCCCC2)C(N)=O)CCc2[nH]c3c(Cl)cc(Cl)cc3c2C1 [Compound 297, Phenylmethyl [(1S,2S)-1-[[[(3R)-3-[[[(1S)-1-(aminocarbonyl)-2-cyclohexylethyl]amino]carbonyl]-6,8-dichloro-2,3,4,9-tetrahydro-1H-carbazol-3-yl]amino]car-bonyl]-2-methylbutyl]carbamate]
6 | 5.82 | 5.88 | CC[C@H](C)[C@H](NC(=O)OCc1ccccc1)C(=O)N[C@]1(C(=O)N[C@@H](CCc2ccccc2)C(N)=O)CCc2[nH]c3c(Cl)cc(Cl)cc3c2C1 [Compound 299, Phenylmethyl [(1S,2S)-1-[[[(3R)-3-[[[(1S)-1-(aminocarbonyl)-3-phenylpropyl]amino]carbonyl]-6,8-dichloro-2,3,4,9-tetrahydro-1H-carbazol-3-yl]amino]car-bonyl]-2-methylbutyl]carbamate]
7 | 7.77 | 7.64 | CCC(C)[C@H](NC(=O)[C@@]1(NC(=O)[C@H](CC2CCCCC2)NC(=O)OCc2ccccc2)CCc2[nH]c3c(Cl)cc(Cl)cc3c2C1)C(N)=O (stereo partly drawn) [Compound 300, Phenylmethyl [(1S,2S)-1-[[[(3R)-3-[[[(1S)-1(aminocarbonyl)-2-methylbutyl]amino]carbonyl]-6,8-dichloro-2,3,4,9-tetrahydro-1H-carbazol-3-yl]amino]car-bonyl]-2-cyclohexylmethyl]-carbamate]
8 | 6.75 | 6.27 | CC[C@H](C)[C@H](NC(=O)[C@@]1(NC(=O)[C@@H](NC(=O)OCc2ccccc2)[C@@H](C)CC)CCc2[nH]c3c(Cl)cc(Cl)cc3c2C1)C(=O)O [Compound 301, Phenylmethyl [(1S,2S)-1-[[[(3R)-3-[[[(1S,2S)-1-(carboxy)-2-methylbutyl]amino]carbonyl]-6,8-dichloro-2,3,4,9-tetrahydro-1H-carbazol-3-yl]amino]car-bonyl]-2-methylbutyl]carbamate]
9 | 6.49 | 6.32 | CC[C@H](C)[C@H](NC(=O)[C@@]1(NC(=O)[C@H](Cc2ccc(O)cc2)NC(=O)OCc2ccccc2)CCc2[nH]c3c(Cl)cc(Cl)cc3c2C1)C(N)=O [Compound 302, Phenylmethyl [(1S)-1-[[[(3R)-3-[[[(1S,2S)-1-(aminocarbonyl)-2-methylbutyl]amino]carbonyl]-6,8-dichloro-2,3,4,9-tetrahydro-1H-carbazol-3-yl]amino]car-bonyl]-2-(4-hydroxyphenyl)-ethyl]carbamate]
10 | 7.74 | 7.42 | CC[C@H](C)[C@H](NC(=O)[C@@]1(NC(=O)[C@H](CCc2ccccc2)NC(=O)OCc2ccccc2)CCc2[nH]c3c(Cl)cc(Cl)cc3c2C1)C(N)=O [Compound 304, Phenylmethyl [(1S)-1-[[[(3R)-3-[[[(1S,2S)-1-(aminocarbonyl)-2-methylbutyl]amino]carbonyl]-6,8-dichloro-2,3,4,9-tetrahydro-1H-carbazol-3-yl]amino]car-bonyl]-3-phenylpropyl]carbamate]

From patent US7122570B2, “Tetrahydrocarbazol derivatives as ligands for G-protein-coupled receptors (GPCR)” (Zentaris AG, priority 2001, dated 2006)
